Measurements as given in US6673801B1, “Dihydroxyhexanoic acid derivatives” (Pfizer Inc., priority 1998, dated 2004).

Experiments:
[1] = Kinetic solubility assay (turbidometric, phosphate buffer); conditions: pH 7, aqueous buffer, kinetic from dmso stock
Experimental: (§1) Solubility of the compounds is determined at four fixed concentrations and is expressed as μg/mL. Solubility or insolubility is measured in phosphate buffer using a turbidometric plate reader by automated micro addition of a compound predissolved in DMSO. Solubilities at 50, 100, 200 and 250 or 100, 200, 400 and 500 micrograms/mL can be determined by predissolving 1 mg of compound in sufficient DMSO to reach an initial concentration of 20 or 40 μg/uL.
(§2) A spectramax 250 UV transparent 96 well microplate is filled with 200 uL of Stock pH 7 phosphate buffer solution. A series of 25 absorption readings in a 5 by 5 matrix at a wavelength of 492 nm are taken for each well in the microplate containing pH buffer alone. This scan is to be used as a “blank”, and the raw optical dispersion (OD) values are used as a baseline.
(§3) Compounds in DMSO solution are then added (column wise) down the microplate. Up to twenty four samples are assayed with each compound being placed in four contiguous wells column wise. Each column of the microplate contains four concentrations of compound in ascending concentration and ascending row order (A-D), or row (E-H). […] The plate is then shaken for 20 minutes to allow for mixing.
(§4) After compound addition, a second scan consisting of a series of 25 absorption readings in a 5 by 5 matrix are taken for each well in the microplate at the same wavelength as the first blank scan. The raw compound OD values for each reading in the 5 by 5 matrix are subtracted from the corresponding “blank” values in the 5 by 5 matrix to provide the raw solubility OD data.
(§5) Data obtained from the Tecan SLT Spectra Image Reader is then analyzed using a Visual Basic computer program (or can be calculated manually according to methods well known to those of ordinary skill in the art), so as to provide solubility data for each compound.

[2] = pH 7
Experimental: as §1, §2, §3, §4, §5

SMILES	solubility at 20 min [1]	melting point	Solubility [2]
CC(C)(O)CC[C@H](C[C@H](O)[C@H](Cc1cccs1)NC(=O)c1cnc2ccccc2n1)C(N)=O [Example 1, QUINOXALINE-2-CARBOXYLIC ACID (4(R)-CARBAMOYL-2(S),7-DIHYDROXY-7-METHYL-1(S)-THIOPHEN-2-YLMETHYL-OCTYL)-AMIDE]	> 250 µg/mL		
CC(C)(O)CC[C@H](C[C@H](O)[C@H](Cc1ccccc1)NC(=O)c1cnc2c(F)c(F)c(F)cc2c1)C(N)=O [Example 5, 6,7,8-Trifluoro-quinoline-3-carboxylic acid (1(S)-benzyl-4(R)-carbamoyl 2(S),7-dihydroxy-7-methyl-octyl)-amide]	> 250 µg/mL	185 to 188 °C	
CC(C)(O)CC[C@H](C[C@H](O)[C@H](Cc1ccccc1)NC(=O)c1cnc2ccccc2n1)C(=O)NO [Example 6, Quinoxaline-2-carboxylic acid (1(S)-benzyl-2(S),7-dihydroxy-4(R)-hydroxycarbamoyl-7-methyl-octyl)-amide]	> 250 µg/mL	108 to 110 °C	
CC(C)(O)CC[C@H](C[C@H](O)[C@H](Cc1ccccc1Cl)NC(=O)c1cnc2ccccc2n1)C(N)=O [Example 7, Quinoxaline-2-carboxylic acid [4(R)-carbamoyl-1(S)-(2-chloro-benzyl)-2(S),7-dihydroxy-7-methyl-octyl]-amide]	> 250 µg/mL		
CC(C)(O)CC[C@H](C[C@H](O)[C@H](Cc1ccccc1F)NC(=O)c1cnc2ccccc2n1)C(=O)NO [Example 8, Quinoxaline-2-carboxylic acid [1(S)-(2-fluoro-benzyl)-2(S),7-dihydroxy-4(R)-hydroxycarbamoyl-7-methyl-octyl]-amide]	> 250 µg/mL	130 to 131 °C	
CC(C)(O)CC[C@H](C[C@H](O)[C@H](Cc1ccccc1F)NC(=O)c1cnc2ccccc2n1)C(N)=O [Example 9, Quinoxaline-2-carboxylic acid [4(R)-carbamoyl-1(S)-(2-fluoro-benzyl)-2(S),7-dihydroxy-7-methyl-octyl]-amide]	> 250 µg/mL	147 to 148 °C	
CC(C)(O)CC[C@H](C[C@H](O)[C@H](Cc1ccc(F)c(F)c1)NC(=O)c1cnc2ccccc2n1)C(=O)NO [Example 10, Quinoxaline-2-carboxylic acid [1(S)-(3,4-difluoro-benzyl)-2(S),7-dihydroxy-4(R)-hydroxycarbamoyl-7-methyloctyl]-amide]	> 200 µg/mL	150 to 153 °C	
CC(C)(O)CC[C@H](C[C@H](O)[C@H](Cc1ccc(F)c(F)c1)NC(=O)c1cnc2ccccc2n1)C(N)=O [Example 11, Quinoxaline-2-carboxylic acid [4(R)-carbamoyl-1(S)-(3,4-difluoro-benzyl)-2(S),7-dihydroxy-7-methyl-octyl]-amide]	> 250 µg/mL	110 to 120 °C	
CC(C)(O)CC[C@H](C[C@H](O)[C@H](Cc1cccc2ccccc12)NC(=O)c1cnc2ccccc2n1)C(N)=O [Example 12, Quinoxaline-2-carboxylic acid (4(R)-carbamoyl-2(S),7-dihydroxy-7-methyl-1(S)-naphthalen-1-ylmethyl-octyl)-amide]	> 250 µg/mL	155 to 158 °C	
CNC(=O)[C@H](CC(C)C)C[C@H](O)[C@H](Cc1ccc2ccccc2c1)NC(=O)c1cnc2ccccc2n1 [Example 127, quinoxaline-2-carboxylic acid (2(S)-hydroxy-6-methyl-4(R)-methylcarbamoyl-1(S)-naphthalen-2-ylmethyl-heptyl)-amide, reference compound]	< 5 µg/mL		
CC(C)(F)CC[C@H](C[C@H](O)[C@H](Cc1ccccc1)NC(=O)c1cnc(Cl)c(Cl)c1)C(N)=O [Example 247]			less than 5 μg/mL
